# Test results reported in patent EP0677039B1, “CYCLOBUTANE DERIVATIVES AS INHIBITORS OF […] SYNTHETASE AND PROTEIN […]” (Abbott Laboratories, priority 1993, dated 1995).
# Target: T1, Rat liver microsomal squalene synthetase (Rattus norvegicus, UniProt Q02769)
# T1 construct: Rat liver microsome, the source of enzyme; from tissue; host or cells: rat liver microsomes
# T1 sequence (Q02769 1-416): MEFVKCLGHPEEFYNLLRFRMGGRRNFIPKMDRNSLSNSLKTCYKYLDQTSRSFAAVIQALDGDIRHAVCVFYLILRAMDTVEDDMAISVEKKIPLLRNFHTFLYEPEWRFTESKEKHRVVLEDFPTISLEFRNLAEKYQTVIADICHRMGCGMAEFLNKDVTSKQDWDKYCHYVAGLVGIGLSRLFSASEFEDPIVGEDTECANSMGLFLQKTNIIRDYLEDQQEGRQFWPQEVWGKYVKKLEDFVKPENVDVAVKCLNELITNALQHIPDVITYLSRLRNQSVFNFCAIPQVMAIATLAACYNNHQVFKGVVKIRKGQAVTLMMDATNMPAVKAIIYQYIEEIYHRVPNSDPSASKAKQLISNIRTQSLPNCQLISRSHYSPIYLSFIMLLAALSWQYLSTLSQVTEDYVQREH
# Test: In vitro inhibition of squalene synthetase
# Assay type: biochemical
# Conditions: rat liver microsomes, labelled farnesyl pyrophosphate, 10 minutes at 37 °C; for inhibition at 1 µM: values marked * in Table 1: 1 µM test compound; for inhibition at 10 µM: 10 µM test compound, compared to controls with no test compound
# Description: In vitro inhibition of squalene synthetase may be measured by the following procedure. Rat liver microsomal squalene synthetase activity was measured using farnesyl pyrophosphate as a substrate and quantitating squalene synthesis using labelled farnesyl pyrophosphate and counting the squalene formed. Rat liver microsome, the source of enzyme, was prepared according to the method of Gillies, P. J., et al., Exp. Molc. Pathol. 44: 329-339 (1986), a modification of the procedure of Erickson, S. K., and Cooper, A. D., Metabolism, 29: 991-996 (1980). […] Oxygen was excluded from the closed incubation tube by degassing with nitrogen. The reaction was terminated by the addition of ethanolic KOH and after degassing with N2, the microsomal membranes were solubilized by heating at 60 °C for 30 minutes. The squalene was extracted into hexane, and the squalene was separated from all other radioactive molecules by passage over an activated alumina column. […] The per cent inhibition at a dose of 10 µM (or 1 µM) compared to controls with no test compound was determined. […]
inhibition at 1 µM [%],inhibition at 10 µM [%],Compound
,90,"CCCN(Cc1ccc(Oc2ccccc2)cc1)C(=O)[C@H]1[C@@H](C(=O)O)[C@H](C(=O)O)[C@@H]1C(=O)N(Cc1ccccc1)Cc1ccc(Oc2ccccc2)cc1 [Example 63, (1α,2β,3β,4α)-1-[N-Propyl-N-(4-phenoxybenzyl)aminocarbonyl]-2-[N-benzyl-N-(4-phenoxybenzyl)aminocarbonyl]cyclobutane-3,4-dicarboxylic acid]"
,80,"CCCN(Cc1ccc(Oc2ccccc2)cc1)C(=O)C1C(CO)C(C(=O)O)C1C(=O)N(CCC)Cc1ccc(Oc2ccccc2)cc1 (stereo not drawn) [Example 70B, (1α,2β,3β,4α)-1,2-Di[N-propyl-N-(4-phenoxybenzyl)aminocarbonyl]-4-hydroxymethyl-cyclobutane-3-carboxylic acid]"
,77,"CCCN(Cc1ccc(Oc2ccccc2)cc1)C(=O)C1C(C=NO)C(C(=O)O)C1C(=O)N(CCC)Cc1ccc(Oc2ccccc2)cc1 (stereo not drawn) [Example 71C, (1α,2β,3β,4α)-1,2-Di[N-propyl-N-(4-phenoxybenzyl)aminocarbonyl]-4-[(hydroxyimino)methyl]-cyclobutane-3-carboxylic acid]"
51,,CCCN(Cc1ccc(Oc2ccccc2)cc1)C(=O)C1C(C(=O)O)C(c2nn[nH]n2)C1C(=O)N(CCC)Cc1ccc(Oc2ccccc2)cc1 (centres unmarked) [Example 72C]
75,,CCCN(Cc1ccc(Oc2ccccc2)cc1)C(=O)C1C(Cc2nn[nH]n2)C(C(=O)O)C1C(=O)N(CCC)Cc1ccc(Oc2ccccc2)cc1 (centres unmarked) [Example 73B]
55,,CCCN(Cc1ccc(Oc2ccccc2)cc1)C(=O)C1C(NC(=O)C(=O)O)C(C(=O)O)C1C(=O)N(CCC)Cc1ccc(Oc2ccccc2)cc1 (centres unmarked) [Example 74D]
73,,"CCCN(Cc1ccc(Oc2ccccc2)cc1)C(=O)C1C(NC(=O)CCC(=O)O)C(C(=O)O)C1C(=O)N(CCC)Cc1ccc(Oc2ccccc2)cc1 (stereo not drawn) [Example 75B, (1α,2β,3β,4α)-1,2-Di[N-propyl-N-(4-phenoxybenzyl)aminocarbonyl]-4-(3-carboxypropionylamino)cyclobutane-3-carboxylic acid]"
57,,CCCN(Cc1ccc(Oc2ccccc2)cc1)C(=O)C1C(C=CC(=O)O)C(C(=O)O)C1C(=O)N(CCC)Cc1ccc(Oc2ccccc2)cc1 (centres unmarked) [Example 76B]
51,,CCCN(Cc1ccc(Oc2ccccc2)cc1)C(=O)C1C(CCC(=O)O)C(C(=O)O)C1C(=O)N(CCC)Cc1ccc(Oc2ccccc2)cc1 (centres unmarked) [Example 77B]

# Second part, the compound before the results:
Compound,inhibition at 1 µM [%],inhibition at 10 µM [%]
"O=C(O)C1C(C(=O)O)C(C(=O)N(Cc2ccc(Oc3ccccc3)cc2)C2CCC2)C1C(=O)N(Cc1ccc(Oc2ccccc2)cc1)C1CCC1 (stereo not drawn) [Example 48, (1α,2β,3β,4α)-1,2-Di[N-cyclobutyl-N-(4-phenoxybenzyl)aminocarbonyl]cyclobutane-3,4-dicarboxylic acid]",79,
"O=C(O)C1C(C(=O)O)C(C(=O)N(Cc2ccc(F)cc2)Cc2ccc(Oc3ccccc3)cc2)C1C(=O)N(Cc1ccc(F)cc1)Cc1ccc(Oc2ccccc2)cc1 (stereo not drawn) [Example 53B, (1α,2β,3β,4α)-1,2-Di[N-(4-fluorobenzyl)-N-(4-phenoxybenzyl)aminocarbonyl]cyclobutane-3.4-dicarboxylic acid]",63,
"COc1cccc(CCN(Cc2ccc(Oc3ccccc3)cc2)C(=O)C2C(C(=O)O)C(C(=O)O)C2C(=O)N(CCc2cccc(OC)c2)Cc2ccc(Oc3ccccc3)cc2)c1 (stereo not drawn) [Example 54B, (1α,2β,3β,4α)-1,2-Di[N-(4-phenoxybenzyl)-N-(3-methoxyphenethyl)aminocarbonyl]cyclobutane-3,4-dicarboxylic acid]",,74
"COc1ccc(CCN(Cc2ccc(Oc3ccccc3)cc2)C(=O)C2C(C(=O)O)C(C(=O)O)C2C(=O)N(CCc2ccc(OC)c(OC)c2)Cc2ccc(Oc3ccccc3)cc2)cc1OC (stereo not drawn) [Example 55, (1α,2β,3β,4α)-1,2-Di[N-(4-phenoxybenzyl)-N-(3,4-dimethoxyphenethyl)aminocarbonyl]cyclobutane-3,4-dicarboxylic acid]",,78
"O=C(O)[C@H]1[C@H](C(=O)O)[C@H](C(=O)N(CCc2ccccc2)Cc2ccc(Oc3ccccc3)cc2)[C@H]1C(=O)N(CCc1ccccc1)Cc1ccc(Oc2ccccc2)cc1 [Example 56, (1α,2β,3β,4α)-1,2-Di[N-(4-phenoxybenzyl)-N-phenethylaminocarbonyl] cyclobutane-3,4-dicarboxylic acid]",,86
"O=C(O)[C@H]1[C@H](C(=O)O)[C@H](C(=O)N(CCCc2ccccc2)Cc2ccc(Oc3ccccc3)cc2)[C@H]1C(=O)N(CCCc1ccccc1)Cc1ccc(Oc2ccccc2)cc1 [Example 57, (1α,2β,3β,4α)-1,2-Di[N-(4-phenoxybenzyl)-N-(3-phenyl-1-propyl)aminocarbonyl]cyclobutane-3,4-dicarboxylic acid]",,64
"O=C(O)[C@H]1[C@H](C(=O)O)[C@H](C(=O)N(CCCCc2ccccc2)Cc2ccc(Oc3ccccc3)cc2)[C@H]1C(=O)N(CCCCc1ccccc1)Cc1ccc(Oc2ccccc2)cc1 [Example 58, (1α,2β,3β,4α)-1,2-Di[N-(4-phenoxybenzyl)-N-(4-phenyl-1-butyl)aminocarbonyl]cyclobutane-3,4-dicarboxylic acid]",,63
"COC(=O)CN(Cc1ccc(Oc2ccccc2)cc1)C(=O)[C@H]1[C@@H](C(=O)O)[C@H](C(=O)O)[C@@H]1C(=O)N(CC(=O)OC)Cc1ccc(Oc2ccccc2)cc1 [Example 59, (1α,2β,3β,4α)-1,2-Di[N-(4-phenoxybenzyl)-N-(methoxycarbonylmethyl)aminocarbonyl]cyclobutane-3,4-dicarboxylic acid]",,50
"CCOC(=O)CCN(Cc1ccc(Oc2ccccc2)cc1)C(=O)[C@H]1[C@@H](C(=O)O)[C@H](C(=O)O)[C@@H]1C(=O)N(CCC(=O)OCC)Cc1ccc(Oc2ccccc2)cc1 [Example 60, (1α,2β,3β,4α)-1,2-Di[N-(4-phenoxybenzyl)-N-(ethoxycarbonylethyl)aminocarbonyl]cyclobutane-3,4-dicarboxylic acid]",65,
"CCCN(Cc1ccc(OC2CCCCC2)cc1)C(=O)[C@H]1[C@@H](C(=O)O)[C@H](C(=O)O)[C@@H]1C(=O)N(CCC)Cc1ccc(OC2CCCCC2)cc1 [Example 61B, (1α,2β,3β,4α)-1,2-Di[N-propyl-N-(4-cyclohexyloxybenzyl)aminocarbonyl]cyclobutane-3,4-dicarboxylic acid]",,43
"CCCN(Cc1ccc(Oc2ccccc2)cc1)C(=O)[C@H]1[C@@H](C(=O)O)[C@H](C(=O)O)[C@@H]1C(=O)N(C)CC/C=C(\C)CCC=C(C)C [Example 62B, (1α,2β,3β,4α)-1-[N-Propyl-N-(4-phenoxybenzyl)aminocarbonyl]-2-[N-methyl-N-(homogeranyl)aminocarbonyl]cyclobutane-3,4-dicarboxylic acid]",,83
"CCCN(Cc1ccc(Oc2ccccc2)cc1)C(=O)[C@H]1[C@@H](C(=O)O)[C@H](C(=O)O)[C@@H]1C(=O)NCc1ccc(Oc2ccccc2)cc1 [Example 64D, (1α,2β,3β,4α)-1-[N-Propyl-N-(4-phenoxybenzyl)aminocarbonyl]-2-[N-(4-phenoxybenzyl)aminocarbonyl]cyclobutane-3,4-dicarboxylic acid]",,45
"O=C(O)[C@H]1[C@H](C(=O)O)[C@H](C(=O)OCc2ccc(Oc3ccccc3)cc2)[C@H]1C(=O)OCc1ccc(Oc2ccccc2)cc1 [Example 65B, (1α,2β,3β,4α)-1,2-Di-(4-phenoxybenzyloxycarbonyl)-3,4-dicarboxylic acid]",,58
"CCCN(C(=O)[C@H]1[C@@H](C(=O)O)[C@H](C(=O)O)[C@@H]1C(=O)N(CCC)c1ccc(Nc2ccccc2)cc1)c1ccc(Nc2ccccc2)cc1 [Example 66C, (1α,2β,3β,4α)-1,2-Di[N-propyl-N-(4-phenylaminophenyl)aminocarbonyl]cyclobutane-3,4-dicarboxylic acid]",,33
"CCCN(Cc1ccc(Nc2ccccc2)cc1)C(=O)[C@H]1[C@@H](C(=O)O)[C@H](C(=O)O)[C@@H]1C(=O)N(CCC)Cc1ccc(Nc2ccccc2)cc1 [Example 67C, (1α,2β,3β,4α)-1,2-Di[N-propyl-N-(4-phenylaminobenzyl)aminocarbonyl]cyclobutane-3,4-dicarboxylic acid]",,87
"CCCN(Cc1ccc(Sc2ccccc2)cc1)C(=O)C1C(C(=O)O)C(C(=O)O)C1C(=O)N(CCC)Cc1ccc(Sc2ccccc2)cc1 (stereo not drawn) [Example 68B, (1α,2β,3β,4α)-1,2-Di[N-propyl-N-(4-phenylthiobenzyl)aminocarbonyl]cyclobutane-3,4-dicarboxylic acid]",84,
"CCCN(Cc1ccc(COc2ccccc2)cc1)C(=O)C1C(C(=O)O)C(C(=O)O)C1C(=O)N(CCC)Cc1ccc(COc2ccccc2)cc1 (stereo not drawn) [Example 69E, (1α,2β,3β,4α)-1,2-Di[N-propyl-N-[4-phenoxymethylbenzyl]aminocarbonyl]cyclobutane-3,4-dicarboxylic acid]",56,
